We go through eleven compounds from patent publication US20030186352A1, “Apicomplexan chorismate synthase sequences and an inhibitor of the shikimate pathway” (priority 1998, published 2003).

Structures are written as SMILES. pIC50: −log10 of the molar value. Converted amounts (≈) assume the structure as drawn. Like-named read-outs stand apart in the source and are kept apart here.

The test system of data set [1] is T. gondii tachyzoites (RH strain). As to the kind of experiment: T. gondii growth inhibition in HFF monolayers, tritiated uracil uptake. Type of data set: cell-based, Toxoplasma gondii. On the procedure:
The improvements are based on microscopic visual imspection of infected and inhibitor treated cultures, and on quantitation of nucleic acid synthesis of the parasite by measure intake of ^3H uracil onto the parasite's nucleic acid. Uracil is not utilized by mammalian cells. […] Only the RH strain tachyzoites, cultured for up to 72 hours, had been used in previously reported assays. The use of Me49, Ptg, and R5 mutant are unique aspects of the methods used in these assays in this invention.
In these assays toxicity of a candidate inhibitor was assessed by its ability to prevent growth of human foreskin fibroblasts (HFF) after 4 days and after 8 days as measured by tritiated thymidine uptake and microscopic evaluation. Confluent monolayers of HFF were infected with tachyzoites and bradyzoites. Inhibitor was added one hour later. Non-toxic doses were used in parasite growth inhibition assays. Parasite growth was measured by ability to incorporate tritiated uracil during the last 18 hours of culture.
First the toxicity of gabaculine was assessed by its ability to prevent growth of human foreskin fibroblasts (HFF) as measured by ^3H-thymidine uptake and microscopic evaluation. Non-toxic doses were used in parasite growth inhibition assays. in vitro parasite growth inhibition assays included confluent monolayers of HFF infected with tachyzoites (RH) or mutant Me49 (R5). Gabaculine was added 1 hour later. Parasite growth was measured by the ability to incorporate 3H-uracil during the last 18 hours of culture. In addition, parasite growth was evaluated microscopically in Giemsa stained slides.
Confluent monolayers of HFF cells, grown in 96-well plates are infected with T. gondii tachyzoites of the RH strain and serial dilutions of anti-microbial compound are applied 1 hour later. T. gondii growth is assessed in these cultures by their ability to incorporate tritiated uracil (2.5 μCi/well) added during the last 18 hours of culture. After harvesting cells with an automatic cell harvester, uracil incorporation is measured by liquid scintillation.

The next data set has as its system T. gondii. As to the kind of experiment: T. gondii infection in mice: manifestations, parasitemia, brain cysts. Set-up: species or system Toxoplasma gondii.
A further data set concerns fibroblasts. As to the kind of experiment: TSA-DCA experiments: effect on host cells (tritiated thymidine uptake, non-confluent fibroblasts). Format: cell-based, human. On the procedure: (§1) Effects of inhibitors of T. gondii in vitro were assessed after 1, 4 or 5 days in tissue culture using fibroblasts infected with […] tachyzoites of T. gondii. Effects in the fibroblasts were scored. Compounds used were TSA-DCA, TSA-Na+, and DCA at various concentrations ranging up to 1 mM. Uptake of ^3H uracil (utilized by T. gondii but not by mammalian cells), and visual appearance of T. gondii in these cells were used to assess parasite growth. Effect of compounds on host cells was studied by microscopic examination and by measuring uptake of tritiated thymidine utilizing a non-confluent monolayer of fibroblasts.
(§2) The results in table 5 show the greatest inhibitory effect of TSA-DCA and some effect of DCA at a higher concentration. […] “T50” is the concentration at which 50% of the cells were killed (T=toxic) and so forth. […] Analysis was uptake of H3 thymidine. Confirmation was by visual inspection of microscope slides (e.g. FIGS. 15 A-D).

A further data set relates to T. gondii tachyzoites. As to the kind of experiment: TSA-DCA experiments: T. gondii growth in fibroblasts (3H uracil uptake, visual appearance). Format: cell-based, Toxoplasma gondii. The method, then:
as §1, §2

The subject of the next data set is C. parvum. As to the kind of experiment: C. parvum infection of MDBKF5D2 cell monolayers, immunofluorescence assay at 48 hours. Type of data set: cell-based, Cryptosporidium parvum. The method, then: C. parvum oocysts at 50,000/well were incubated at 37° C. (8% CO2) on confluent MDBKF5D2 cell monolayers in 96 well microtiter plates with the following concentrations of each drug. […] The level of infection of each well was determined and analyzed by an immunofluorescence assay at 48 hours using an antibody to C. parvum sporozoites made in rabbits at a concentration of 0.1%. Fluorescein-conjugated goat anti-rabbit antibody was used at a concentration of 1%.
C. parvum oocysts at 50,000/well were incubated with each drug (PRM=paromomycin which is the positive control, NPMG, gabaculine, SHAM, 8-hydroxyquinoline) at 37° C. (8% carbon dioxide) on confluent MDBKF5D2 cell monolayers in 96 well microtiter plates. The level of infection of each well was determined and analyzed by an immunofluorescence assay at 48 hours using as an antibody C. parvum sporozoite rabbit anti-serum (0.1%), and using fluorescein-conjugated goat anti-rabbit antibody (1%). Data are expressed as mean parasite count/field when 16 fields counted at 10× magnification “s.d. of the mean” (FIG. 6).

The test system of data set [2] is D6 clone of Plasmodium falciparum. As to the kind of experiment: P. falciparum in vitro growth assay (Milhous et al.), D6 clone. Format: cell-based. The note with it: for IC50 / IC90: Plasmodium falciparum.
Data set [3] relates to W2 clone of Plasmodium falciparum. As to the kind of experiment: P. falciparum in vitro growth assay (Milhous et al.), W2 clone. Type of data set: cell-based. The conditions noted are these: for IC50 / IC90: Plasmodium falciparum.
[4] abbreviates: exp. 5/15, day 4, range 12-100 (200) uM, no visual.
The mark [5] stands for this setting: exp. 5/29, day 4, range 125-1000 (2000) uM, no visual.
[6] abbreviates: exp. 8/23, day 1, range 250-2000 uM.
Setting [7] is: D6 clone (second value of each pair).
Setting [8] is: W2 clone (first value of each pair).
The mark [9] stands for this setting: D6 clone (second value of each pair), read-out: Concentrations of other compounds that inhibited these clones in this assay.
[10] abbreviates: W2 clone (first value of each pair), read-out: Concentrations of other compounds that inhibited these clones in this assay.

As a reminder, the pIC50 is the IC50 on a negative log10 scale, so that one unit is a factor of ten. As usually defined, the IC75 is the concentration at which the effect reaches the 75% level. Lower therefore signals greater potency. What is called IC90 is the point of the concentration-response curve where the effect stands at 90%. A high value points to weaker potency.

`Nc1ccc(S(=O)(=O)Nc2ncccn2)cc1` [Sulfadiazine]: in data set [1] (sulphadiazine 1.56 μmg/ml, 4 days, medium about 36,000 CPM), the “reduction of growth of T. gondii” value was “about 60%”. Also, the “manifestations of infection in vivo” value with T. gondii was “reduced manifestations of infection”.

Take `C1CCC(NC2CCCCC2)CC1` [DCA, dicyclohexylamine]: the T50 in the data set with fibroblasts (setting [4]) is 50 µM; in the data set on fibroblasts (setting [5]), “none”; with fibroblasts (setting [6]), 1000 µM. Moreover, the T90 entry in the data set on fibroblasts (setting [4]) was “none”; in the data set with fibroblasts (setting [5]), 2000 µM; in the data set on fibroblasts (setting [6]), “none”. Further, the negative-log IC50 (pIC50) in the data set with T. gondii tachyzoites (Toxoplasma gondii, Fibroblast, 24 h) was 3.30. The same compound had a 75% effect concentration (IC75) in the data set on T. gondii tachyzoites (day 1 of culture) of 1000 µM. The “IC7 5-80” value in the data set on T. gondii tachyzoites (setting [4]) was “none”; in the data set with T. gondii tachyzoites (setting [5]), “none”; in the data set with T. gondii tachyzoites (setting [6]), 250 to 500 µM; with T. gondii tachyzoites (exp. 9/8, day 1, range 125-1000 uM), 1000 µM. In addition, the IC50 entry in the data set on T. gondii tachyzoites (setting [4]) and with T. gondii tachyzoites (setting [5]) was “none” throughout.

On to `NC[C@@H]1O[C@H](O[C@H]2[C@@H](O)[C@H](O[C@@H]3[C@@H](O)[C@H](N)C[C@H](N)[C@H]3O[C@H]3O[C@H](CO)[C@@H](O)[C@H](O)[C@H]3N)O[C@@H]2CO)[C@H](N)[C@@H](O)[C@@H]1O` [PRM], for which the “approximate 95% Cl count (mean parasite count per field)” value in the data set on C. parvum (paromomycin with ethanol (positive control), media and ethanol ~1200) is listed as roughly 100 count/field; with C. parvum (paromomycin without ethanol (positive control), media alone ~1800), roughly 200 count/field.

For the compound `CCCCN(CCCC)CCC(O)c1cc2c(Cl)cc(Cl)cc2c2cc(C(F)(F)F)ccc12` (stereo not drawn) [HAL], the “Concentrations of other compounds that inhibited these clones in this assay” value was found to be 0.51 ng/mL in data set [2] (setting [7]) and 0.33 ng/mL in data set [3] (setting [8]).

In the case of `Oc1cccc2cccnc12` [8-OH-quinoline, 8-hydroxyquinoline], the IC50 was determined as 1200 ng/mL (≈ 8.29 µM) in data set [2] (D6) and 1.63 µg/mL (≈ 11.2 µM) in data set [3] (W2). The 90% effect concentration (IC90) in data set [2] (D6) amounted to 1.88 µg/mL (≈ 13 µM); in data set [3] (W2), 4.52 µg/mL (≈ 31.1 µM). Also, the “effect against T. gondii” value in data set [1] is on record as “effective against T. gondii”. Further, the “approximate 95% Cl count (mean parasite count per field)” value with C. parvum (8-OH-quinoline 0.1 μg/ml, media alone ~1800) is on record as roughly 1300 count/field; with C. parvum (8-OH-quinoline 1 μg/ml, media alone ~1800), roughly 1100 count/field; with C. parvum (8-OH-quinoline 10 μg/ml, media alone ~1800), roughly 900 count/field; in the data set with C. parvum (8-OH-quinoline 100 μg/ml, media alone ~1800) it was roughly 300 count/field.

Consider `CCN(CC)CCCC(C)Nc1ccnc2cc(Cl)ccc12` (stereo not drawn) [Chloroquin], for which the “Concentrations of other compounds that inhibited these clones in this assay” value in data set [2] (setting [7]) was 2.88 ng/mL; in data set [3] (setting [8]) it was 40.86 ng/mL.

Take `C=C[C@H]1C[N@@]2CC[C@H]1C[C@H]2[C@H](O)c1ccnc2ccc(OC)cc12` [Quinine]: the IC50 in data set [2] (setting [9]) was 4.41 ng/mL (≈ 0.0136 µM); in data set [3] (setting [10]) it was 0.0386 µg/mL (≈ 0.119 µM).

Turning to `O=C(O)CC[N+](=O)[O-]` [3-NPA, 3-Nitropropionic acid], in data set [2] (D6), the IC50 was 2820 ng/mL (≈ 23.7 µM) and it took 2.82 µg/mL (≈ 23.7 µM) to reach the 90% level (IC90). The “restriction of CPM (tritiated uracil incorporation)” value in data set [1] (3-NPA 0.006 mg ml, 4-day assay, medium about 30,000 CPM) is “around 60%”. In data set [3] (W2), this compound came in with an IC50 of 3.3 µg/mL (≈ 27.7 µM) and an IC90 of 4.61 µg/mL (≈ 38.7 µM). Moreover, the “inhibition of C. parvum” value in the data set with C. parvum is reported as “inhibited”.

`O=C1C(O)=C([C@H]2CC[C@H](c3ccc(Cl)cc3)CC2)C(=O)c2ccccc21` [Atovaquovone]: the “Concentrations of other compounds that inhibited these clones in this assay” value in data set [2] (setting [7]) is 0.12 ng/mL; in data set [3] (setting [8]) it was 0.13 ng/mL.

`O=C(NO)c1ccccc1O` [SHAM, Salicylhydroxamic acid]: in data set [1], the “effect against T. gondii” value is “effective against T. gondii”. Besides, in data set [1] (SHAM 0.16 μg/ml, 4 day assay, medium around 54,000 CPM), the “restriction of CPM (tritiated uracil incorporation)” value is “around 50%”. In addition, the “counts (tritiated uracil incorporation)” value in data set [1] (SHAM 0.78 μg/ml, 4 days, medium around 54,000, no RH around 1,000 CPM) is listed as “about 8,000 CPM”. For the same compound, the “parasitemia and number of brain cysts in vivo” value in the data set with T. gondii was “affects parasitemia and number of brain cysts”. Besides, the “approximate 95% Cl count (mean parasite count per field)” value with C. parvum (SHAM 0.1 μg/ml, 0.2% ETOH, media and ethanol ~1200) was roughly 1200 count/field; in the data set on C. parvum (SHAM 1 μg/ml, 0.2% ETOH, media and ethanol ~1200) it was roughly 1100 count/field; with C. parvum (SHAM 10 μg/ml, 0.2% ETOH, media and ethanol ~1200), roughly 1100 count/field; in the data set on C. parvum (SHAM 100 μg/ml, 0.2% ETOH, media and ethanol ~1200) it was roughly 400 count/field.

Take `CCc1nc(N)nc(N)c1-c1ccc(Cl)cc1` [Pyrimethamine]: the IC50 in data set [2] (setting [9]) is 0.05 ng/mL (≈ 0.000201 µM); in data set [3] (setting [10]), 0.0821 µg/mL (≈ 0.33 µM).
